# Results reported in US9492545B2, “Compositions of statins and omega-3 fatty acids” (Omthera Pharmaceuticals, Inc., priority 2012, dated 2016).
# Assays:
# [1] = Stability testing of statins dissolved in PUFA free acid solvent system at 25° C., 60% RH (Example 5); type: physicochemical
# Procedure: The compositions were then mixed until full dissolution was observed, using a magnetic stir bar and sonication for 30-60 second intervals, taking care to maintain a nitrogen headspace over the solution throughout processing. […] Vials were covered with foil to protect from light and stored at 25° C., 60% RH. One vial of each of the three compositions was retrieved at each timepoint for testing. Procedures as listed in the USP Monograph for Omega-3-Acid Ethyl Ester Capsules were followed for measuring quantities of acid value, peroxide value, and absorbance for fats and fixed oils.
# [2] = Solubility of statins in PUFA free acid solvent system, HPLC of supernatant (Example 4); type: physicochemical; conditions: 2 mL PUFA free acid solvent; after addition of about 313 mg; before overnight standing
# Procedure: For this study, ten vials were prepared such that 5 vials contained 2 mL of Lovaza oil and 5 vials contained 2 mL of PUFA free acid solvent system. About 20 mg of each statin were added to one Lovaza oil vial and to one PUFA free acid solvent system vial. Vials containing the samples were blanketed with nitrogen, then sealed. The vials were then sonicated for 1 hour or until contents appeared clear. After sonication, vials which remained clear received additional 20 mg aliquots of their respective statin and were again blanketed with nitrogen. […] The samples were centrifuged and the supernatant was assayed for the respective statin by HPLC.
# [3] = Solubility of statins in various pH buffers (Example 1)
# [4] = Solubility of statins in omega-3 ethyl ester solvent system, Lovaza fill (Example 3); conditions: sonicated 1 hour, overnight, supernatant by HPLC
"Statin in oil, content ([1]; t = 0)","Statin in oil, percent of total ([1]; t = 0)","Statin in oil, content ([1]; t = 1 week)","Statin in oil, percent of total ([1]; t = 1 week)","Statin in oil, content ([1]; t = 2 week)","Statin in oil, percent of total ([1]; t = 2 week)",Appearance of vial after repeated statin additions and sonication [2],"Solubility ([3]; acid phthalate buffer pH 4.0, T = 1 Week)",pH of maximal aqueous solubility ([3]; across the tested pH buffers),"Aqueous solubility (in words) ([3]; overall across pH buffers, rosuvastatin at time zero)","Initial solubility in PUFA ethyl ester solvent system, Concentration [4]",SMILES
8.738 mg/g,100%,8.275 mg/g,100%,7.839 mg/g,100%,–,–,–,–,–,"CC(C)c1c(C(=O)Nc2ccccc2)c(-c2ccccc2)c(-c2ccc(F)cc2)n1CC[C@@H](O)C[C@@H](O)CC(=O)[O-].CC(C)c1c(C(=O)Nc2ccccc2)c(-c2ccccc2)c(-c2ccc(F)cc2)n1CC[C@@H](O)C[C@@H](O)CC(=O)[O-].[Ca+2] [Atorvastatin, Atorvastatin Calcium]"
–,–,–,–,–,–,still remained clear,–,–,–,–,CC[C@H](C)C(=O)O[C@H]1C[C@H](O)C=C2C=C[C@H](C)[C@H](CC[C@@H](O)C[C@@H](O)CC(=O)O)[C@H]21 [Pravastatin Sodium]
6.481 mg/g,100%,6.416 mg/g,100%,6.505 mg/g,100%,–,0.002,~7.0,significant aqueous solubility,1 µg/mL,"CC(C)c1nc(N(C)S(C)(=O)=O)nc(-c2ccc(F)cc2)c1/C=C/[C@@H](O)C[C@@H](O)CC(=O)[O-].CC(C)c1nc(N(C)S(C)(=O)=O)nc(-c2ccc(F)cc2)c1/C=C/[C@@H](O)C[C@@H](O)CC(=O)[O-].[Ca+2] [Rosuvastatin, Rosuvastatin Calcium]"
